Data as given in ChEMBL document CHEMBL1134756, “Synthesis and evaluation of a difluoromethylene analogue of sphingomyelin as an inhibitor of sphingomyelinase” (Bioorg Med Chem Lett, 2001).

What was measured:
[1] = Inhibitory potency of compound against neutral (N-) SMase activity in bovine brain microsomes(Ms) at concentration of 400 uM; details: Microsome
[2] = Inhibitory potency of compound against neutral (N-) SMase activity in Bacillus cereus at concentration of 400 uM
[3] = Inhibitory potency of compound against neutral (N-) SMase activity in bovine liver microsomes(Ms) at concentration of 400 uM; details: Microsome
[4] = system: Sphingomyelin phosphodiesterase 1 (acid sphingomyelinase) (Bos taurus); experiment: Inhibitory potency of compound against acidic (A-) SMase activity in bovine brain lysosomes microsomes(Ms) at concentration of 400 uM; details: Microsome
Bos taurus = species: Bos taurus; experiment: Inhibitory potency of compound against ceramide synthase activity in bovine liver microsomes(Ms) at concentration of 400 uM; details: Microsome
Homo sapiens = species: Homo sapiens; experiment: Inhibitory concentration against […] induced IL1-beta production in human peripheral monocytes; type: functional

| inhibition [1] [%] | inhibition [2] [%] | inhibition [3] [%] | inhibition [4] [%] | inhibition (Bos taurus) [%] | IC50 (Homo sapiens) [nM] | SMILES |
| --- | --- | --- | --- | --- | --- | --- |
| 50 | 0 | 15 | 80 | 0 |  | CCCCCCCCCCCCCCCCCC(=O)N[C@H](C(O)c1ccccc1)C(O)C(F)(F)P(=O)(O)O (stereo partly specified) |
|  |  |  |  |  | 100 | CC[C@@H](C)/C=C(\C)C[C@@H](C)C[C@@H](C)/C=C/C=C/C=C/C(=O)N[C@H](CO)C[C@@]1(O)C(=O)C=C[C@@H]2O[C@@H]21 [SCYPHOSTATIN] |
